In paper PMC10761937, “Functional engineering of human iPSC‐derived parasympathetic neurons enhances responsiveness to gastrointestinal hormones” (FEBS Open Bio, 2023):

Tested on: GLP1R‐neurons
Test: Ca^2+ imaging, GLP1R‐neurons (iPSC‐derived)
Assay type: cell-based, human
Details: 10 nM GLP1 (GLP1 (7–37) in method), day 35, Fluo‐8 AM
Protocol: Before initiating differentiation, the iPSCs (1–2 × 10^5 cells·cm^−2; Cell lines and cell culture section) were transferred to 6‐well plates (Corning, Inc., Corning, NY, USA) coated with 2‐methacryloyloxyethyl phosphorylcholine (MPC) polymer (Lipidure CM5206E; NOF, Tokyo, Japan). The cells were maintained in mTeSR1 cGMP medium containing 10 μM Y‐27632 (Fujifilm Wako Pure Chemical Industries) for 2 or 3 days to form embryoid body (EBs) in a rotary shaker at 95 r.p.m. (OS‐762RC; Optime, Tokyo, Japan). Subsequently, iPSCs were differentiated into neural crest cells (NCCs), as previously reported. Briefly, NCCs were induced from Ebs using knockout serum replacement (KSR) medium and N2 medium with graded addition of nerve growth factors and signaling factors. KSR medium was composed of DMEM‐F12 (Fujifilm Wako Pure Chemical Industries), 20% KSR (Thermo Fisher Scientific), 1% NEAA, 1% monothioglycerol (Fujifilm Wako Pure Chemical Industries), and 1% P/S. N2 medium consisted of DMEM‐F12, 1% N2 supplement (Fujifilm Wako Pure Chemical Industries), 1% NEAA, and 1% P/S. When EB formation was considered day 0 of induction, the medium was changed at days 2, 5, 7, 9, and 12. […]

## GLP1: GLP1 (4280‐v; Peptide Institute, Inc.); GLP1 (7–37) in Ca2+ imaging (HAEGTFTSDVSSYLEGQAAKEFIAWLVKGRG; Glucagon-like peptide 1(7-37); UniProt P01275 98-128, looked up)
Fig. S5B
  Intracellular Ca^2+ concentration of selected GLP1R‐neurons (traces): increased the intracellular Ca^2+ concentration
N = 10, Student's t‐test vs. 0 nM, Fig. 6C
  Ratio of change (ΔF stim/F 0) in mean fluorescence intensity before and after ligand addition: significantly increased
